Calls of active or inactive are those of the source.
Key:
[1] = molecular target: T1, Cytochrome P450 2C9 (Homo sapiens, UniProt P11712)
[2] = molecular target: Cytochrome P450 2C19 (Homo sapiens, UniProt P33261); assay: Cytochrome panel assay with activity outcomes. Panel member name: p450-cyp2c19 Compounds with AC50 equal or less than 10 uM are considered active; format: functional
[3] = HEK-293T cell viability reduction – luminescence, B-cell screen hits, cytotoxicity control for BCR NF-kB inhibitor project, dose response (AID 489021); format: functional, cell-based;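 note: HEK-293T cells carrying an NF-kB luciferase reporter; cells exposed to compound for about 14 hours before viability readout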
[4] = molecular target: T2, Cytochrome P450 1A2 (Homo sapiens, UniProt P05177);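 note: PubChem cytochrome P450 panel assay, CYP1A2 panel member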
T2 sequence (P05177 whole entry): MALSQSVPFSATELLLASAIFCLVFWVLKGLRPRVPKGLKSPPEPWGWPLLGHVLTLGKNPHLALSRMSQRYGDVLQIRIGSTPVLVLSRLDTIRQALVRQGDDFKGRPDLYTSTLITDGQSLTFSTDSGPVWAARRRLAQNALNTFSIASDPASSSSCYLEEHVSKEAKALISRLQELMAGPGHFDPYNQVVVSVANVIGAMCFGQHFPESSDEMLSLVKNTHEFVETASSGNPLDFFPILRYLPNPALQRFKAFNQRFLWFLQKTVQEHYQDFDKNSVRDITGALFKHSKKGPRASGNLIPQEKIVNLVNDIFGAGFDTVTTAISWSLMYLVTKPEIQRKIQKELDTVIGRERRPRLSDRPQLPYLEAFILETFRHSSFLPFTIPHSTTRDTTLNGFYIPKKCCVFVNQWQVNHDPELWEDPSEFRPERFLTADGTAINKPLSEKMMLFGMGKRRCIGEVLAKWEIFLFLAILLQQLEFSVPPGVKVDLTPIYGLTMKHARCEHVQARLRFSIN

[5] = intracellular Trypanosoma cruzi inhibitors in host cells – cell-based, plate reader, cherry-pick samples, set 3, dose response (AID 651818); format: functional;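 note: compounds incubated with infected cells for about four days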
[6] = molecular target: T3, Histone-lysine N-methyltransferase NSD2 (Homo sapiens, UniProt O96028); format: biochemical
T3 sequence (O96028 whole entry): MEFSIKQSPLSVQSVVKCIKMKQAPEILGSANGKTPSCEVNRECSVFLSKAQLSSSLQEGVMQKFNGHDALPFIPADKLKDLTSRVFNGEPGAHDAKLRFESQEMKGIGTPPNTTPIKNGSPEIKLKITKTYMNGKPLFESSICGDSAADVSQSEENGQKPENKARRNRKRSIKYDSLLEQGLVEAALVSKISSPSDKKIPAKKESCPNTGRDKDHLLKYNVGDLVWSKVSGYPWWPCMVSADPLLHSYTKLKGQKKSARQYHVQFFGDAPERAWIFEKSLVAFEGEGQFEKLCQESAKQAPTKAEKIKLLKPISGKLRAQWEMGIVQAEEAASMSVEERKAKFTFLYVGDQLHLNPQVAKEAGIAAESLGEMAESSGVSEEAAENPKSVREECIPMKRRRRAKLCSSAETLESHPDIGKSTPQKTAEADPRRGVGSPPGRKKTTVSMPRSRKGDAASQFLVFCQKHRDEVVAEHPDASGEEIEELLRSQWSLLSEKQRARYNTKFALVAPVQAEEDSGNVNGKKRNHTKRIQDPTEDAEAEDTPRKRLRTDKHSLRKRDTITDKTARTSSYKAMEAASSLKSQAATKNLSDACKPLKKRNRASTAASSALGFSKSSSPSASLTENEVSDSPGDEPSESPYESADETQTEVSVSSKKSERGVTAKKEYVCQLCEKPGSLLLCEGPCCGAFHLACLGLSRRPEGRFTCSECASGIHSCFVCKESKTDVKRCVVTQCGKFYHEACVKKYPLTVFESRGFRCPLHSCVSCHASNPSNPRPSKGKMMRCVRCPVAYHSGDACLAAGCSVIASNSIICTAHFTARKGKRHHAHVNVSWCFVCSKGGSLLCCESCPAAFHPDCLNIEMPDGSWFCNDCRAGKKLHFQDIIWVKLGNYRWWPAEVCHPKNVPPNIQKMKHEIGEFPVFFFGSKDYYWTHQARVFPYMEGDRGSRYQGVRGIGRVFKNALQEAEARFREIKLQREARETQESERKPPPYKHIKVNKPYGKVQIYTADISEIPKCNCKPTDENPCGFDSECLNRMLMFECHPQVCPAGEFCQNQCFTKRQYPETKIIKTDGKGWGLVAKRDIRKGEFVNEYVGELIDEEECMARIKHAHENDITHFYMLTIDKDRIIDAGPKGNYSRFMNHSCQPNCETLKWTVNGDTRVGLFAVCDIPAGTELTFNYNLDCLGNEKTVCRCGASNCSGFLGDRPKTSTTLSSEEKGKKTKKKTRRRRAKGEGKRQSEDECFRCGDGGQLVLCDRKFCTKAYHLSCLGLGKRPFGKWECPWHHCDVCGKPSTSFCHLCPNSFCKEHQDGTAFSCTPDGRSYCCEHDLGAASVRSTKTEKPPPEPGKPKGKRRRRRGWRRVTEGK

[7] = molecular target: T4, Calpain-2 catalytic subunit (Sus scrofa, UniProt P43367); assay: m-calpain protease blockers, concentration series – biochemical, fluorogenic peptide substrate, dose response (AID 1420); format: functional
T4 sequence (P43367 whole entry): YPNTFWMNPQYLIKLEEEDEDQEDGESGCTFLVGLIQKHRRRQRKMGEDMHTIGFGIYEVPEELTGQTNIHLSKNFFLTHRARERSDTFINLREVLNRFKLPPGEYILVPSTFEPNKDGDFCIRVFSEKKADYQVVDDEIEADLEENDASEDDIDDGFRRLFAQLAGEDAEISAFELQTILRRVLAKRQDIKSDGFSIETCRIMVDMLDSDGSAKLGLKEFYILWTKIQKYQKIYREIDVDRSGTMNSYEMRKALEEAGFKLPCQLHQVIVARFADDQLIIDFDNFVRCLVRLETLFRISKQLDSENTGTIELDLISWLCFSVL

[8] = system: INS1; assay: INS-1E survival protection against cytokine death – cell-based, luminescence, retest, dose response (AID 449756); format: functional; settings: Rattus norvegicus;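 note: cell death triggered by IL-1 beta plus TNF-alpha plus IFN-gamma mixture; protective hits raise ATP signal compared with cytokine alone wells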
[9] = molecular target: G-protein coupled receptor 55 (Homo sapiens, UniProt Q9Y2T6); assay: selective activators of receptor GPR55 – imaging, U2OS cells, beta-arrestin-GFP redistribution, primary screen (AID 1961); format: functional
[10] = molecular target: Cytochrome P450 2D6 (Homo sapiens, UniProt P10635);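 note: CYP2D6 member of a cytochrome P450 panel assay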
[11] = viability of PTEN-deleted HCT116 cells – cell-based, HCT116 PTEN knockout, dose response (AID 1047); format: functional;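 note: HCT116 colon tumor cells with PTEN knocked out; cells exposed to compound for 60 hours before readout; potency for loss of cell viability measured by luminescence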
[12] = viability of HCT116 lacking mutant beta-catenin – cell-based, human colon tumor, dose response (AID 1045); format: functional;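 note: HCT116 colon tumor cells with beta catenin knocked out; cells exposed to compound for 60 hours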
[13] = molecular target: Cytochrome P450 3A4 (Homo sapiens, UniProt P08684);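 note: CYP3A4 tested as one member of a cytochrome P450 panel screen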
[14] = molecular target: T1, Cytochrome P450 2C9; remark: listed apart in the source

T1 sequence (P11712 whole entry): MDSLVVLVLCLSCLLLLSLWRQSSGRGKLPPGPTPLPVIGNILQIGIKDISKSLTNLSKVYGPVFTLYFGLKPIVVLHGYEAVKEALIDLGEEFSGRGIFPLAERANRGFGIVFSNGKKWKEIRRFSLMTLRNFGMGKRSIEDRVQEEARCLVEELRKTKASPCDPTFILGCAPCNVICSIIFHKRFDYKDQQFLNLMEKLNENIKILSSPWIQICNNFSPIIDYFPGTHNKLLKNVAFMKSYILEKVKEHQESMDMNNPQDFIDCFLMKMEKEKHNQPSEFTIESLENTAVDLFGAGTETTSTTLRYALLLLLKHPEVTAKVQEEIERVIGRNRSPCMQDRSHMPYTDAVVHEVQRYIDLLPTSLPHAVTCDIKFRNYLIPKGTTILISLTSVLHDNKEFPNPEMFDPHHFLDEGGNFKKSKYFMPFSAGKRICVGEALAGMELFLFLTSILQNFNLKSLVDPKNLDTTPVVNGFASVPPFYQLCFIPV
G-protein coupled receptor 55, sequence (Q9Y2T6 whole entry): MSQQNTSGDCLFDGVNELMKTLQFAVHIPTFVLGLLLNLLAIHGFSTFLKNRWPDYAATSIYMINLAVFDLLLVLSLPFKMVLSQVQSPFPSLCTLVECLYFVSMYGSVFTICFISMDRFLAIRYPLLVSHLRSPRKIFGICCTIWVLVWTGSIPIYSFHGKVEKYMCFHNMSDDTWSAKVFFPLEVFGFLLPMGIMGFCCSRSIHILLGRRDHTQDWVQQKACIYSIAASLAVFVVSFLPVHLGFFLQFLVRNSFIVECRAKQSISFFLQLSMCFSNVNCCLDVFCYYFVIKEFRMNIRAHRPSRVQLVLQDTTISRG
Cytochrome P450 2C19, sequence (P33261 whole entry): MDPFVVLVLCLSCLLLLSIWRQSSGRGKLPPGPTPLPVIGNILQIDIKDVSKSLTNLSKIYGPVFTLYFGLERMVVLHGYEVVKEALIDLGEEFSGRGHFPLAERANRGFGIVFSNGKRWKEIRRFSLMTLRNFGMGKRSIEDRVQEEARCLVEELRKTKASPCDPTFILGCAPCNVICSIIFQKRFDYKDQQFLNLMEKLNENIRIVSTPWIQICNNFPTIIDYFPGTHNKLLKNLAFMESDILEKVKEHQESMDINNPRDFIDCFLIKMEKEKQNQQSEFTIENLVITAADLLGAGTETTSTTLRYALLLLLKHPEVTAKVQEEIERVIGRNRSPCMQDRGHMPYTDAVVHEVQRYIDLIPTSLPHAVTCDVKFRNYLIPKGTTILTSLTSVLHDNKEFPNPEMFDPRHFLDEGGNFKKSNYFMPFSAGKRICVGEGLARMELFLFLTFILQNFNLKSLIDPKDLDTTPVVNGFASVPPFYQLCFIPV
Cytochrome P450 2D6, sequence (P10635 whole entry): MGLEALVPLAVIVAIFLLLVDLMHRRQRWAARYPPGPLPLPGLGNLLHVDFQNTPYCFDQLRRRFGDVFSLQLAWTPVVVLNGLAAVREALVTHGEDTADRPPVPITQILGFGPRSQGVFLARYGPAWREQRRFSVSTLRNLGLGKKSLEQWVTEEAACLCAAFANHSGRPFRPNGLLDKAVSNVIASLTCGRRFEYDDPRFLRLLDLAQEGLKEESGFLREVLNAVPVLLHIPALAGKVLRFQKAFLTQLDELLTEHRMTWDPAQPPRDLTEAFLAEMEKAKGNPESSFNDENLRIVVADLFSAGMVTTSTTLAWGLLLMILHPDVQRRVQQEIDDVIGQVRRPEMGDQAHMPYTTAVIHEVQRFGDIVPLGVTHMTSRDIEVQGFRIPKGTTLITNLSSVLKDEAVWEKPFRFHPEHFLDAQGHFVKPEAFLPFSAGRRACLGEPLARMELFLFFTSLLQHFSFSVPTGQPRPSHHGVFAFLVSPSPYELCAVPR
Cytochrome P450 3A4, sequence (P08684 whole entry): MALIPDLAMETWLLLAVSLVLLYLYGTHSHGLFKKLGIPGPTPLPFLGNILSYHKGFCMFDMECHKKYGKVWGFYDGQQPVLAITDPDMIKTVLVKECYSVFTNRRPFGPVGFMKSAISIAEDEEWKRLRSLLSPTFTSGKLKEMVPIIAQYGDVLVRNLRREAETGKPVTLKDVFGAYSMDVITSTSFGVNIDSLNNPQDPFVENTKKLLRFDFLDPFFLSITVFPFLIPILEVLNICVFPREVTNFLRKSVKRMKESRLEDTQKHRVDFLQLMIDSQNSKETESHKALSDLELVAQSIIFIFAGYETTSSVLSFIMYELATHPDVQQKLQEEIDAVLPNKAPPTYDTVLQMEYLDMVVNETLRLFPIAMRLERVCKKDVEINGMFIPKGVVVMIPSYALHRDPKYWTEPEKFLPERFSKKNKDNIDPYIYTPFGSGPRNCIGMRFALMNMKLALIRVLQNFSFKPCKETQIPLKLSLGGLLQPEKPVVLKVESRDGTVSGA

For `Nc1ccccc1S(N)(=O)=O`, the AC50 [1] was “inconclusive”.

In the case of `C[C@@]1(O)CCOC(=O)C1`, the AC50 [2] is reported as “inconclusive” and the AC50 [1] is reported as “inconclusive”.

For `CN(C)c1ccc(-c2nc(N(C)Cc3ccco3)c3ccccc3n2)cc1`, the AC50 ([2]; read-out: AC50) was 20 µM (inconclusive) and the AC50 [1] was “inconclusive”.

With `Cc1noc(C)c1CSc1nc2nncc-2c(O)n1-c1ccccc1` the IC50 [3] was > 80 µM (inactive).

For `CC(=C\c1ccccc1)/C=C1/SC(=O)N(CCCC(=O)Nc2ccc(C(=O)O)cc2)C1=O`, the IC50 [3] was > 80 µM (inactive).

With `COCCNc1ccnc(-c2ccccc2C(F)(F)F)n1` the AC50 [4] was 20 µM (inconclusive) and the AC50 [1] was “inconclusive”.

With `C[C@@H]1CN([C@H](C)CO)C(=O)Cc2cc(NC(=O)Cc3ccccc3)ccc2O[C@H]1CN(C)Cc1ccc(C(F)(F)F)cc1` the AC50 [5] was 5.77 µM (active).

With `CCN(CC)CCCNc1nc(CN2CCOCC2)nc2sc3c(c12)CCC3` the AC50 [6] was > 20 µM (inactive).

In the case of `CCOC(=O)c1c(C)c(C(=O)N2CCN(C(=O)c3ccco3)CC2)c(C)n1C`, the AC50 ([2]; read-out: AC50) is reported as 28.2 µM (inconclusive), the AC50 [4] is reported as 39.8 µM (inconclusive) and the AC50 [1] is reported as “inconclusive”.

In the case of `CC(=O)c1c(C)[nH]c(C(=O)OCc2cccc(Cl)c2)c1C`, the IC50 [7] is reported as 7.75 µM (not active) and the AC50 [8] is reported as 20 µM (active).

For `C[C@@H]1CN([C@H](C)CO)C(=O)Cc2cc(NS(=O)(=O)c3ccc(Cl)cc3)ccc2O[C@H]1CN(C)Cc1ccc(Oc2ccccc2)cc1`, the AC50 [5] was 4.56 µM (active).

For `COC(=O)Nc1nc2ccc(C(=O)c3ccccc3)cc2[nH]1` [MEBENDAZOLE], the AC50 [1] was “inconclusive”.

For `COc1ccc(NS(=O)(=O)c2cc(NC(=O)c3cc(=O)c4ccccc4o3)ccc2OC)cc1`, the IC50 [3] was > 80 µM (inactive).

With `CC(=O)Nc1ccc(Sc2ccccc2C(=O)O)cn1` the AC50 [6] was 6.95 µM (active).

In the case of `COc1ccc(NC(=O)Nc2cccc3c2O[C@H](CN(C)S(=O)(=O)c2ccc(F)cc2)[C@@H](C)CN([C@H](C)CO)C3=O)cc1`, the AC50 [5] is reported as 20 µM (inactive).

In the case of `CCN(CC)CCCNc1nc(-n2nc(C)cc2C)nc2sc3c(c12)CC(C)(C)OC3`, the AC50 [6] is reported as > 20 µM (inactive).

With `C[C@@H]1CN([C@@H](C)CO)C(=O)c2cccc(NC(=O)Nc3ccc(C(F)(F)F)cc3)c2O[C@H]1CN(C)Cc1ccc2c(c1)OCO2` the AC50 [5] was 1.34 µM (active).

With `O=C(/C=C/c1ccco1)Nc1scc(-c2ccccc2)c1C(=O)O` the AC50 [6] was > 20 µM (inactive).

With `CCN(CC(=O)Nc1c(F)cccc1F)C(=O)c1cc([N+](=O)[O-])ccc1N1CCCCC1` the IC50 [3] was > 80 µM (inactive).

In the case of `O=C(N[C@H]1CCC(=O)N([C@H](CSc2ccccc2)Cc2ccccc2)CC1)OCc1ccccc1`, the EC50 [9] is reported as 1.74 µM (active).

In the case of `O=S(=O)(NCc1cc(-c2ccccc2Cl)no1)c1ccccc1`, the AC50 [10] is reported as 39.8 µM (inconclusive) and the AC50 [1] is reported as “inconclusive”.

With `CCc1noc(C)c1C(=O)Nc1nc(-c2ccc(Cl)cc2Cl)cs1` the EC50 [9] was 3.56 µM (active).

With `CN(C)c1cc[n+](Cc2c(Cl)cccc2Cl)cc1` the IC50 [3] was > 80 µM (inactive) and the AC50 [8] was 3.85 µM (active).

For `Cc1ccc(S(=O)(=O)N(C)C[C@H]2OCCCC[C@@H](C)Oc3ccc(NS(=O)(=O)c4ccc(Cl)cc4)cc3C(=O)N([C@H](C)CO)C[C@@H]2C)cc1`, the AC50 [5] was 3.91 µM (active).

With `C[C@@H]1CCCCO[C@H](CN(C)CC2CCCCC2)[C@@H](C)CN([C@H](C)CO)C(=O)c2cc(NC(=O)Nc3ccc4c(c3)OCO4)ccc2O1` the AC50 [5] was 1.96 µM (active).

In the case of `COc1ccccc1/C=C/C(=O)c1ccc(Cl)cc1`, the EC50 [11] is reported as 23.5 µM (active), the EC50 [12] is reported as 21.8 µM (active) and the EC50 [9] is reported as 25.5 µM (inactive). For the same compound, the AC50 [10] was 15.8 µM (inconclusive), the AC50 [13] was 28.2 µM (inconclusive) and the AC50 [14] was 22.4 µM (inconclusive).

In the case of `COc1ccccc1CNC(=O)CCCn1c(=O)c2ccccc2n(CC(=O)NC2CCCC2)c1=O`, the AC50 [1] is reported as “inconclusive”.

From ChEMBL document CHEMBL1201862, “PubChem BioAssay data set” (2004)
